How the values were obtained:
[1] = system: intestinal tissues; details: in vivo
Procedure: (§1) Experimental design for GI-irAE induction by Ipilimumab, with or without additional therapies. 10-day old CTLA4h/h mice received 0.1 mg of Ipilimumab on days 10, 13, 16, and 19 after birth to induce the GI-irAE phenotype, measured by FITC-dextran assay on day 32. On day 33, the mice were sacrificed for histological and immunofluorescent analysis of intestinal tissues, and flow cytometry, etc. […] Aggregate data from 4 experiments are presented. […] Starting on day 10 after birth, the mice began receiving treatment with vehicle (n=33), echinomycin (n=27), Ipilimumab (n=33), Ipilimumab+echinomycin (n=26), Ipilimumab+RMP1-14 (n=27), Ipilimumab+echinomycin+RMP1-14 (n=28), or Ipilimumab+echinomycin+XMG1.2 (n=15). Echinomycin (10 μg/kg), Ipilimumab (0.1 mg/mouse/injection), RMP1-14 (0.2 mg/mouse/injection), and XMG1.2 (0.2 mg/mouse/injection). Vehicle or echinomycin (10 μg/kg) were given once every three days for 8 doses, and mAbs (0.1 mg/mo. for Ipilimumab; 0.2 mg/mo. for RMP1-14 and XMG1.2) once every three days for 4 doses. Data collection was performed as described in (FIG. 8A). […] Serum FITC-dextran intensity shown as mean±SEM for individual mice pooled from 3 independent experiments. […] Statistics were determined by unpaired t tests (two-tailed) for group means. […] Representative H&E images from intestines of Ipilimumab-treated mice additionally treated with echinomycin (panel i), RMP1-14 (panels ii-iv), echinomycin+RMP1-14 (panels v-vi), or echinomycin+XMG1.2 (panels vii-viii). […] Representative immunofluorescence images showing relative expression of PD-L1 in jejunum of mice from different treatment groups.
(§2) Therefore, we used intestinal permeability to orally administrated FITC-dextran and histology as the readout for irAE (FIG. 8A).

[2] = system: intestinal tissues; experiment: Ipilimumab-induced GI-irAE in human CTLA4 knockin mice (FITC-dextran, histology, PD-L1); details: Ipilimumab 0.1 mg/mouse/injection; echinomycin 10 μg/kg added to Ipilimumab
Procedure: as §1, §2

[3] = system: PD-L1 expression in E0771 cells; assay type: cell-based, murine
[4] = system: core HRE motif EGFP reporter in 4T1-HRE-EGFP cells; assay type: cell-based, murine

Question: With “Ipilimumab: Recombinant anti-CTLA-4 antibody Ipilimumab provided by Lakepharma Inc.” as the molecule, how does the “intestinal inflammation / pathology (histological analysis)” value [1] read?
Answer: induced intestinal inflammation

Question: What about the “PD-L1 expression in the intestines” value [2] of the same molecule?
Answer: elevated PD-L1 expression

Question: For `[Cl-].[Cl-].[Co+2]` [CoCl2], which PD-L1 expression [3] is on record?
Answer: further upregulated PD-L1

Question: What about the “EGFP reporter fluorescence activity” value [4] of the same molecule?
Answer: marked increase in EGFP reporter fluorescence activity

— patent US20240139280A1, “USE OF HIF-1-ALPHA INHIBITORS IN CANCER IMMUNOTHERAPY” (ONCOC4, INC., priority 2021, published 2024)
